Assay results taken from the NIST ThermoML archive (doi:10.1016/j.tca.2016.09.002).
Numbers after ± are expanded uncertainties.

Key:
[1] = 101.33 kPa, Liquid, Hot wire method
[2] = wn = mass fraction of the nth substance listed; conditions: 303.15 K, 100.7 kPa, Liquid, Hot wire method

thermal conductivity ([1]; 303.15 K) [W/m/K]	thermal conductivity ([1]; 313.15 K) [W/m/K]	thermal conductivity ([1]; 323.15 K) [W/m/K]	thermal conductivity ([2]; w1 = 0.0085) [W/m/K]	thermal conductivity ([2]; w1 = 0.00761) [W/m/K]	SMILES
0.607 ± 0.015	0.621 ± 0.016	0.631 ± 0.016	–	–	O [water]
–	–	–	0.617 ± 0.006	–	C[C@H](CCC(=O)[O-])[C@H]1CC[C@H]2[C@@H]3CC[C@@H]4C[C@H](O)CC[C@]4(C)[C@H]3C[C@H](O)[C@]12C.[Na+] [sodium deoxycholate] + O
0.254 ± 0.003	0.256 ± 0.004	0.26 ± 0.003	–	–	OCCO [1,2-ethanediol]
–	–	–	–	0.259 ± 0.003	C[C@H](CCC(=O)[O-])[C@H]1CC[C@H]2[C@@H]3CC[C@@H]4C[C@H](O)CC[C@]4(C)[C@H]3C[C@H](O)[C@]12C.[Na+] [sodium deoxycholate] + OCCO
